US9145392B2, “Imidazole amines as modulators of kinase activity” (Merck Patent GmbH, priority 2011, dated 2015)

What was measured:
[1] = molecular target: P70S6K (T412E mutant) (Homo sapiens (Human), UniProt P23443, T412E); experiment: P70S6K enzyme assay; format: biochemical; conditions: read-out: IC50 p70S6K
How it was run: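 Phosphorylated product and substrate peptide separated by microfluidic capillary electrophoresis (Caliper LabChip 3000), product peaks resolving before substrate.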

[2] = molecular target: His-AKT (Full Length) (Homo sapiens (Human), UniProt P31749); experiment: AKT enzyme assay; format: biochemical; conditions: read-out: IC50 AKT
His-AKT (Full Length), sequence (P31749 whole entry): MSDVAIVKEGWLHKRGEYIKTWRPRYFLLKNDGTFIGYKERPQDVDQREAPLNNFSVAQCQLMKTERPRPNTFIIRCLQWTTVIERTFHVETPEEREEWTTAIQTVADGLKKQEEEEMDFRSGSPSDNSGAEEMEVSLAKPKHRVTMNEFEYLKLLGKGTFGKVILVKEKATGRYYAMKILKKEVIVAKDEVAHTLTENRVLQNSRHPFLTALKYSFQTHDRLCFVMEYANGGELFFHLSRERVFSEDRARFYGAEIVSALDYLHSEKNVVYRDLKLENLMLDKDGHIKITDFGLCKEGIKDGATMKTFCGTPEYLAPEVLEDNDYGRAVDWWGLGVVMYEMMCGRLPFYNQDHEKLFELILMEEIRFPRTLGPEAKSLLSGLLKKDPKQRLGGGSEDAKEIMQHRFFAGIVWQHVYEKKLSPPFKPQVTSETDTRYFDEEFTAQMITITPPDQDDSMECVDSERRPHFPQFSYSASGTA

P70S6K (T412E mutant), sequence (P23443 whole entry T412E): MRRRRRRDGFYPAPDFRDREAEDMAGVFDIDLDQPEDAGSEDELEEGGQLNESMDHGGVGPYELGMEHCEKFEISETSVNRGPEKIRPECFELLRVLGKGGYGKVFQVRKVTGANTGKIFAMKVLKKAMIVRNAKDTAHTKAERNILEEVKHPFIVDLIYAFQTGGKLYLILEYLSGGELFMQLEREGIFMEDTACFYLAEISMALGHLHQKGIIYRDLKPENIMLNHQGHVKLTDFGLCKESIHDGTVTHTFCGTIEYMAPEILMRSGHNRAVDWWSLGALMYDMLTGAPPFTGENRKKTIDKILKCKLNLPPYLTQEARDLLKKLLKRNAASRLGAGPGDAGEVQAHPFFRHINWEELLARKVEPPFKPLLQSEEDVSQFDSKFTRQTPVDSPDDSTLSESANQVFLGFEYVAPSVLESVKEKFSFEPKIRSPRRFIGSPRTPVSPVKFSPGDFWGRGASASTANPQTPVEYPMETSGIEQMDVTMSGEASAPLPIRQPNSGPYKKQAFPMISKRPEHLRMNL

| Structure (SMILES) | IC50 [1] | IC50 [2] |
| --- | --- | --- |
| COc1c(N)ncnc1N1CCC(c2nc(-c3ccnc(C(F)(F)F)c3)cn2CCN2CCC2)CC1 [Compound 115, 6-(4-(1-(2-(azetidin-1-yl)ethyl)-4-(2-(trifluoromethyl)pyridin-4-yl)-1H-imidazol-2-yl)piperidin-1-yl)-5-methoxypyrimidin-4-amine] | 2.8 nM | 21 nM |
| FC(F)(F)c1cccc(-c2c[nH]c(C3CCN(c4ncncc4Br)CC3)n2)c1 [Compound 4, 5-Bromo-4-{4-[4-(3-trifluoromethyl-phenyl)-1H-imidazol-2-yl]-piperidin-1-yl}-pyrimidine] | 31.9 nM | 6100 nM |
| Nc1ncnc(N2CCC(c3nc(-c4ccc(Cl)c(F)c4)cn3CCN3CCCC3)CC2)c1Br [Compound 266] | 3.3 nM | 16 nM |
| N#Cc1c(N)ncnc1N1CCC(c2nc(-c3ccc(F)c(C(F)(F)F)c3)cn2CCN)CC1 [Compound 158, 4-amino-6-(4-(1-(2-aminoethyl)-4-(4-fluoro-3-(trifluoromethyl)phenyl)-1H-imidazol-2-yl)piperidin-1-yl)pyrimidine-5-carbonitrile] | 1.5 nM | 3.6 nM |
| Nc1ncnc(N2CCC(c3nc(-c4ccc(C(F)(F)F)c(F)c4)cn3CCN3CCCCC3)CC2)c1C1CCC1 [Compound 253] | 19 nM | 28 nM |
| COc1ccc(-c2cn(CCN3CCC3)c(C3CCN(c4ncnc(N)c4C(N)=O)CC3)n2)cc1F [Compound 345] | 100 nM | 13000 nM |
| COC(=O)c1ccc(-c2c(N)ncnc2N2CCC(c3nc(-c4ccc(F)c(C(F)(F)F)c4)cn3CCN3CCCC3)CC2)cc1 [Compound 223] | 21 nM | 78 nM |
| CCc1c(N)ncnc1N1CCC(c2nc(-c3ccc(Cl)c(F)c3)cn2CCN2CCCC2)CC1 [Compound 251] | 2.6 nM | 76 nM |
| Nc1ncnc(N2CCC(c3nc(-c4ccc(F)c(F)c4)cn3CCN3CCCC3)CC2)c1Cl [Compound 238] | 0.9 nM | 3.2 nM |
| N#Cc1c(N)ncnc1N1CCC(c2nc(-c3ccc(F)c(C(F)(F)F)c3)cn2C2CCNCC2)CC1 [Compound 155, 4-amino-6-(4-(4-(4-fluoro-3-(trifluoromethyl)phenyl)-1-(piperidin-4-yl)-1H-imidazol-2-yl)piperidin-1-yl)pyrimidine-5-carbonitrile] | 0.9 nM | 160 nM |
| CCc1c(N)ncnc1N1CCC(c2nc(-c3ccc(F)c(C(F)(F)F)c3)cn2CCN2CC(F)(F)C2)CC1 [Compound 94, 6-(4-(1-(2-(3,3-difluoroazetidin-1-yl)ethyl)-4-(4-fluoro-3-(trifluoromethyl)phenyl)-1H-imidazol-2-yl)piperidin-1-yl)-5-ethylpyrimidin-4-amine] | 13 nM | 1600 nM |
| CCc1c(N)ncnc1N1CCC(c2nc(-c3ccc(F)c(OC)c3)cn2CCN2CCC2)CC1 [Compound 108, 6-(4-(1-(2-(azetidin-1-yl)ethyl)-4-(4-fluoro-3-methoxyphenyl)-1H-imidazol-2-yl)piperidin-1-yl)-5-ethylpyrimidin-4-amine] | 2.2 nM | 4.8 nM |
| Nc1ncnc(N2CCC(c3nc(-c4ccc(F)c(C(F)(F)F)c4)cn3CCN3CCCC3)CC2)c1-c1ccc(C(=O)O)cc1 [Compound 225] | 5.8 nM | 12 nM |
| N#Cc1c(N)ncnc1N1CCC(c2nc(-c3ccc(F)c(C(F)(F)F)c3)cn2CCN2CCCCC2)CC1 [Compound 312] | 1.9 nM | 2.3 nM |
| Nc1ncnc(N2CCC(c3nc(-c4ccc(Cl)c(F)c4)cn3CCN3CCCC3)CC2)c1C1CCC1 [Compound 260] | 21 nM | 67 nM |
| CC(C)N(C)CCn1cc(-c2ccc(F)c(C(F)(F)F)c2)nc1C1CCN(c2ncnc(N)c2C(N)=O)CC1 [Compound 361, 4-Amino-6-(4-{4-(4-fluoro-3-trifluoromethyl-phenyl)-1-[2-(isopropyl-methyl-amino)-ethyl]-1H-imidazol-2-yl}-piperidin-1-yl)-pyrimidine-5-carboxylic acid amide] | 6.4 nM | 11 nM |
